Assay results reported in patent EP2608671B1, “COMPOUNDS FOR TREATMENT OF CANCER” (Gtx, Inc., priority 2010, dated 2012).
Like-named read-outs stand apart in the source and are kept apart here.

Key:
[1] = system: PC-3; test: cells
Text: (§1) The only compounds which belong to the invention are the ones falling under the scope of formula (XI).
Cells were stained with SRB solution.
Cells. […] Cells between the third and fifth passages were used for experiments.
Cell growth inhibition studies. […] Cells were stained with sulphorhodamine B (SRB) solution.

[2] = system: LNCaP; test: cells; details: Homo sapiens
[3] = system: DU 145; test: cells; details: Homo sapiens
[4] = system: B16-F1; test: SRB cell growth inhibition (cytotoxicity) assay; format: cell-based, mouse
Text: as §1

[5] = system: A375; test: SRB cell growth inhibition (cytotoxicity) assay; format: cell-based, human
[6] = system: PPC-1; test: cells; details: Homo sapiens
[7] = Homo sapiens, PC-3, 96 h, read-out: IC50 ± SEM (nM), PC-3
[8] = 96 h, read-out: IC50 ± SEM (nM), LNCaP
[9] = DU-145, 96 h, read-out: IC50 ± SEM (nM), DU 145
[10] = Mus musculus, B16-F1, read-out: IC50 ± SEM (nM), B16-F1
[11] = Homo sapiens, A-375, 96 h, read-out: IC50 ± SEM (nM), A375
[12] = PPC-1, 96 h, read-out: IC50 ± SEM (nM), PPC-1
[13] = Homo sapiens, PC-3, read-out: IC50 ±SEM (nM), PC-3
[14] = read-out: IC50 ±SEM (nM), LNCaP
[15] = DU-145, read-out: IC50 ±SEM (nM), DU 145
[16] = PPC-1, read-out: IC50 ±SEM (nM), PPC-1
[17] = Homo sapiens, A-375, 96 h; read-out: IC50 ± SEM (nM), A375
[18] = Homo sapiens, PC-3, 96 h, read-out: IC50 (nM), PC-3
[19] = DU-145, 96 h, read-out: IC50 ± SEM (nM) Du 145
[20] = Mus musculus, B16-F1; read-out: IC50 ± SEM (nM), B16-F1

For `COc1cc(C(=O)[C@@H]2CSC(c3ccc(O[Si](C)(C)C(C)(C)C)cc3)=N2)cc(OC)c1OC` [58a, (R)-(2-(4-(tert-Butyldimethylsilyloxy)phenyl)-4,5-dihydrothiazol-4-yl)(3,4,5-trimethoxyphenyl)methanone], the IC50 [1, 7] was 183 ± 24 nM, the IC50 [2, 8] was 549 nM and the IC50 [3, 9] was 434 ± 30 nM. For the same molecule, the IC50 [4, 10] was 500 ± 200 nM, the IC50 [5, 11] was 700 ± 300 nM and the IC50 [6, 12] was 246 ± 8 nM.

Molecule `COc1cc(C(=O)c2csc(-c3ccc(CC#N)cc3)n2)cc(OC)c1OC` [2n, 2-(4-(4-(3,4,5-Trimethoxybenzoyl)thiazol-2-yl)phenyl)acetonitrile] has an IC50 [1, 13] of 131 nM, an IC50 [2, 14] of 101 nM and an IC50 [3, 15] of 143 nM. For the same molecule, the IC50 ([4]; Mus musculus, B16-F1; Table 6; read-out: IC50 ±SEM (nM), B16-F1) was 290 nM, the IC50 ([5]; Homo sapiens, A-375; Table 6; read-out: IC50 ±SEM (nM), A375) was 210 nM and the IC50 [6, 16] was 99 nM.

`COc1cc(C(=O)c2csc(Nc3ccc(Cl)cc3)n2)cc(OC)c1OC` [5d, (2-((4-Chlorophenyl)amino)thiazol-4-yl)(3,4,5-trimethoxyphenyl)methanone] was tested, and the IC50 [1, 7] was 33 ± 1 nM, the IC50 [2, 8] was 45 ± 1 nM and the IC50 [3, 9] was 73 ± 1 nM. It also gave an IC50 [5, 17] of 25 ± 7 nM and an IC50 [6, 12] of 36 ± 1 nM.

For `Clc1nccc2ccc(-c3ccc4[nH]ccc4c3)cc12` [6d, 1-Chloro-7-(1H-indol-5-yl)-isoquinoline], the IC50 [1, 13] was 908 nM, the IC50 [2, 14] was 703 nM and the IC50 [3, 15] was 1640 nM. It also gave an IC50 [6, 16] of 929 nM.

`COc1cc(C(=O)n2ccnc2-c2ccccc2)cc(OC)c1OC` [12aaa, (2-phenyl-1H-imidazol-1-yl)(3,4,5-trimethoxyphenyl)methanone] gave an IC50 [1, 18] greater than 10000 nM.

In the case of `Fc1ccc(-c2ccc3ccnc(-c4ccc(F)cc4)c3c2)cc1` [compound 40, 1,7-Bis-(4-fluoro-phenyl)-isoquinoline], the IC50 ([1]; Homo sapiens, PC-3, read-out: IC50 (nM), PC-3) is reported as 19600 nM, the IC50 ([2]; read-out: IC50 (nM), LNCaP) is reported as 13400 nM and the IC50 ([3]; DU-145, read-out: IC50 (nM), DU 145) is reported as 18400 nM. The IC50 ([6]; PPC-1, read-out: IC50 (nM), PPC-1) was 6200 nM.

`COc1cc(C(=O)c2c[nH]c(-c3ccc(OCc4ccccc4)cc3)n2)cc(OC)c1OC` [12ja, (2-(4-(benzyloxy)phenyl)-1H-imidazol-4-yl)(3,4,5-trimethoxyphenyl)methanone] gave an IC50 [1, 7] of 10000 nM, an IC50 [2, 8] of 2790 nM and an IC50 [3, 19] of 10000 nM. For the same molecule, the IC50 [6, 12] was 2840 nM.

`O=S(=O)(c1ccccc1)n1ccnc1-c1ccc(OCc2ccccc2)cc1` [10j, 2-(4-(benzyloxy)phenyl)-1-(phenylsulfonyl)-1H-imidazole] gave an IC50 [1, 18] greater than 10000 nM.

`COc1cc(C(=O)c2c[nH]c(-c3ccc(N(C)C)cc3)n2)cc(OC)c1OC` [12ga, (2-(4-(dimethylamino)phenyl)-1H-imidazol-4-yl)(3,4,5-trimethoxyphenyl)methanone] was tested, and the IC50 [1, 7] was 92 ± 4 nM, the IC50 [2, 8] was 58 ± 2 nM and the IC50 [3, 19] was 95 ± 1 nM. The IC50 [6, 12] was 67 ± 0.7 nM.

For `COc1cc(C(=O)c2csc(-c3cc4ccccc4[nH]3)n2)cc(OC)c1OC` [62a, (2-(1H-indol-2-yl)thiazol-4-yl)(3,4,5-trimethoxyphenyl)methanone], the IC50 [1, 7] was 24 nM, the IC50 [2, 8] was 28 nM and the IC50 [3, 9] was 32 nM. It also gave an IC50 [4, 10] of 43 ± 21 nM, an IC50 [5, 11] of 19 ± 9 nM and an IC50 [6, 12] of 28 nM.

In the case of `COc1cc(/C(=N\N)c2csc(-c3ccccc3)n2)cc(OC)c1OC` [2d-trans, (E)-4-(hydrazono(3,4,5-trimethoxyphenyl)methyl)-2-phenylthiazole], the IC50 [1, 7] is reported as 1040 nM, the IC50 [2, 8] is reported as 1300 nM and the IC50 [3, 9] is reported as 1210 nM. It also gave an IC50 [4, 20] of 1800 ± 700 nM, an IC50 [5, 17] of 600 ± 200 nM and an IC50 [6, 12] of 966 nM.

Molecule `COc1cc(/C=C\c2csc(-c3ccccc3)n2)cc(OC)c1OC` [3a, (Z)-2-Phenyl-4-(3,4,5-trimethoxystyryl)thiazole] has an IC50 [1, 7] greater than 10000 nM, an IC50 [2, 8] greater than 10000 nM and an IC50 [3, 9] greater than 10000 nM. For the same molecule, the IC50 [4, 10] was 11000 ± 2800 nM, the IC50 [5, 11] was 46500 ± 23300 nM and the IC50 [6, 12] was greater than 10000 nM.

Molecule `COc1cc(C(=O)Nc2csc(-c3ccccc3)n2)cc(OC)c1OC` [2h, 3,4,5-Trimethoxy-N-(2-phenylthiazol-4-yl)benzamide] has an IC50 [1, 7] greater than 10000 nM, an IC50 [2, 8] greater than 10000 nM and an IC50 [3, 9] greater than 10000 nM. The IC50 [4, 20] was greater than 30000 nM, the IC50 [5, 17] was greater than 30000 nM and the IC50 [6, 12] was greater than 10000 nM.

Molecule `COc1ccc(C(=O)n2ccnc2-c2ccccc2)cc1` [12aba] has an IC50 ([1]; read-out: IC50 (nM), PC-3, SRB, 96 h, Table 11) greater than 10000 nM.

`COc1ccc(-c2nc(C(=O)c3ccc(F)cc3)c[nH]2)cc1OC` [12hb, (2-(3,4-dimethoxyphenyl)-1H-imidazol-4-yl)(4-fluorophenyl)methanone] was tested, and the IC50 [1, 7] was 10000 nM, the IC50 [2, 8] was 2530 nM and the IC50 [3, 19] was 10000 nM. The IC50 ([5]; Homo sapiens, A-375; A375 melanoma cells, 48 h, SRB; read-out: IC50 ± SEM (nM) A375) was 10000 nM and the IC50 [6, 12] was 2170 ± 48 nM.
